Assay results: paper PMC7093416, “Selective USP7 inhibition elicits cancer cell killing through a p53-dependent mechanism” (Scientific Reports, 2020)
“And” between values parts separate entries of the source, which are not always exact repeats. Equal entries are not always repeated.

System: panel of 484 cancer cell lines
Test: PRISM cancer cell line profiling, 5 days
Format: cell-based
Design: Viability: scale not given here; AUC: unit not given beside the values
Experimental: Cancer cell line profiling was performed using the Broad’s PRISM platform. Cell treatment and data analysis were performed as described in Yu et al[42]. Raw Luminex signal was converted to AUC values for each cell line as described. The resulting AUC profile for each compound was modeled against DepMap using the limma package in R[71]. Because hotspot mutation analysis was performed against DepMap, TP53 annotations in Fig. 6c,d are directly from DepMap.

[1] = GCIY_STOMACH, pert_dose 6.10E-04
[2] = GCT_SOFT_TISSUE, pert_dose 6.10E-04
[3] = GI1_CENTRAL_NERVOUS_SYSTEM, pert_dose 6.10E-04
[4] = GMS10_CENTRAL_NERVOUS_SYSTEM, pert_dose 6.10E-04
[5] = GOS3_CENTRAL_NERVOUS_SYSTEM, pert_dose 6.10E-04
[6] = HCC56_LARGE_INTESTINE, pert_dose 6.10E-04
[7] = HCC366_LUNG, pert_dose 6.10E-04
[8] = HCC1143_BREAST, pert_dose 6.10E-04
[9] = HCC1195_LUNG, pert_dose 6.10E-04
[10] = HCC1359_LUNG, pert_dose 6.10E-04
[11] = HCC1419_BREAST, pert_dose 6.10E-04
[12] = HCC1428_BREAST, pert_dose 6.10E-04
[13] = HCC1438_LUNG, pert_dose 6.10E-04
[14] = HCC1806_BREAST, pert_dose 6.10E-04
[15] = HCC4006_LUNG, pert_dose 6.10E-04
[16] = HCT15_LARGE_INTESTINE, pert_dose 6.10E-04
[17] = HCT116_LARGE_INTESTINE, pert_dose 6.10E-04
[18] = HDQP1_BREAST, pert_dose 6.10E-04

COc1ccc(C2=N[C@@H](c3ccc(Cl)cc3)[C@@H](c3ccc(Cl)cc3)N2C(=O)N2CCNC(=O)C2)c(OC(C)C)c1 [Nutlin-3A]
AUC (FTC238_THYROID): 1.264
MFI FTC238_THYROID (FTC238_THYROID, pert_dose 6.10E-04): 2880 and 3372 and 2980.5 and 2950.5 and 4003.5
AUC (G292CLONEA141B1_BONE): 1.148
AUC (G361_SKIN): 1.031
MFI G361_SKIN (G361_SKIN, pert_dose 6.10E-04): 10064 and 9507.5 and 5703 and 7102 and 9477
AUC (G401_SOFT_TISSUE): 0.8138
AUC (G402_SOFT_TISSUE): 0.8312
MFI G402_SOFT_TISSUE (G402_SOFT_TISSUE, pert_dose 6.10E-04): 8566 and 7883 and 9123.5 and 10028.5 and 7843.5
AUC (GAMG_CENTRAL_NERVOUS_SYSTEM): 1.104
AUC (GB1_CENTRAL_NERVOUS_SYSTEM): 1.08
MFI GB1_CENTRAL_NERVOUS_SYSTEM (GB1_CENTRAL_NERVOUS_SYSTEM, pert_dose 6.10E-04): 8797 and 10917.5 and 10369 and 11626 and 6173
AUC (GCIY_STOMACH): 1.0178
MFI GCIY_STOMACH [1]: 10513.5 and 10287.5 and 8158.5 and 7393 and 6559.5
Viability [1]: 1.05
AUC (GCT_SOFT_TISSUE): 1.1243
MFI GCT_SOFT_TISSUE [2]: 30402 and 32248 and 27974 and 25401 and 26115.5
Viability [2]: 1.1
AUC (GI1_CENTRAL_NERVOUS_SYSTEM): 1.1989
MFI GI1_CENTRAL_NERVOUS_SYSTEM [3]: 7007.5 and 7677 and 5613.5 and 9782 and 8476.5
Viability [3]: 1.209
AUC (GMS10_CENTRAL_NERVOUS_SYSTEM): 1.196
MFI GMS10_CENTRAL_NERVOUS_SYSTEM [4]: 2195 and 3287.5 and 2615 and 2263.5 and 2230
Viability [4]: 0.8757
AUC (GOS3_CENTRAL_NERVOUS_SYSTEM): 0.8893
MFI GOS3_CENTRAL_NERVOUS_SYSTEM [5]: 16506.5 and 12732.5 and 12479 and 15312 and 16884
Viability [5]: 1.256
AUC (GP2D_LARGE_INTESTINE): 0.8664
AUC (H4_CENTRAL_NERVOUS_SYSTEM): 0.8741
AUC (HARA_LUNG): 1.148
MFI HARA_LUNG (HARA_LUNG, pert_dose 6.10E-04): 10420 and 10731 and 9850 and 12219 and 8432
Viability (HARA_LUNG, pert_dose 6.10E-04): 1.156
AUC (HCC15_LUNG): 1.083
MFI HCC15_LUNG (HCC15_LUNG, pert_dose 6.10E-04): 10708.5 and 9658 and 9646.5 and 7600 and 8929.5
AUC (HCC38_BREAST): 1.13
AUC (HCC44_LUNG): 1.143
MFI HCC44_LUNG (HCC44_LUNG, pert_dose 6.10E-04): 8858.5 and 14957 and 12427 and 9895 and 9714
Viability (HCC44_LUNG, pert_dose 6.10E-04): 0.9479
AUC (HCC56_LARGE_INTESTINE): 1.116
MFI HCC56_LARGE_INTESTINE [6]: 22390 and 19383.5 and 18019.5 and 16274 and 12370
Viability [6]: 1.19
AUC (HCC78_LUNG): 1.129
MFI HCC78_LUNG (HCC78_LUNG, pert_dose 6.10E-04): 13938.5 and 17123.5 and 16093 and 13546.5 and 12989
Viability (HCC78_LUNG, pert_dose 6.10E-04): 1.137
AUC (HCC95_LUNG): 1.133
MFI HCC95_LUNG (HCC95_LUNG, pert_dose 6.10E-04): 19085 and 17009 and 14223 and 15820 and 14624.5
Viability (HCC95_LUNG, pert_dose 6.10E-04): 1.3736
AUC (HCC366_LUNG): 1.1015
MFI HCC366_LUNG [7]: 3176 and 4976 and 3338 and 4080 and 5551.5
Viability [7]: 0.8601
AUC (HCC827_LUNG): 1.216
AUC (HCC1143_BREAST): 1.173
MFI HCC1143_BREAST [8]: 10292 and 10056.5 and 12994 and 8725 and 11412
Viability [8]: 1.09
AUC (HCC1195_LUNG): 0.9896
MFI HCC1195_LUNG [9]: 3248 and 2450 and 2557 and 3311 and 2339
Viability [9]: 0.8066
AUC (HCC1359_LUNG): 1.205
MFI HCC1359_LUNG [10]: 3254.5 and 3202.5 and 4282 and 3759 and 4252
Viability [10]: 1.0552
AUC (HCC1419_BREAST): 1.157
MFI HCC1419_BREAST [11]: 4554 and 3766 and 6250 and 4022 and 3342
Viability [11]: 1.3281
AUC (HCC1428_BREAST): 1.0418
MFI HCC1428_BREAST [12]: 5601.5 and 4304.5 and 6512 and 4295 and 6602.5
Viability [12]: 0.9769
AUC (HCC1438_LUNG): 1.064
MFI HCC1438_LUNG [13]: 3705.5 and 4037.5 and 3791 and 2958 and 2338
Viability [13]: 1.029
AUC (HCC1588_LUNG): 0.8674
MFI HCC1588_LUNG (HCC1588_LUNG, pert_dose 6.10E-04): 12748 and 13169 and 10479 and 16252.5 and 12413.5
AUC (HCC1806_BREAST): 1.223
MFI HCC1806_BREAST [14]: 4998.5 and 5222.5 and 6609 and 6768 and 3833.5
Viability [14]: 1.444
AUC (HCC1937_BREAST): 1.259
Viability (HCC1937_BREAST, pert_dose 6.10E-04): 0.8468
AUC (HCC4006_LUNG): 1.075
MFI HCC4006_LUNG [15]: 13511 and 17514.5 and 15021 and 17956 and 15891.5
Viability [15]: 1.081
AUC (HCT15_LARGE_INTESTINE): 1.231
MFI HCT15_LARGE_INTESTINE [16]: 19712 and 17910 and 19958 and 21240.5 and 15477
Viability [16]: 1.456
AUC (HCT116_LARGE_INTESTINE): 0.9703
MFI HCT116_LARGE_INTESTINE [17]: 29799 and 33721.5 and 25531.5 and 28789.5 and 30554.5
Viability [17]: 1.204
AUC (HDQP1_BREAST): 1.144
MFI HDQP1_BREAST [18]: 7912.5 and 7534 and 9203 and 8805.5 and 8820
Viability [18]: 1.159
AUC (HEC1A_ENDOMETRIUM): 0.9522
AUC (HEC1B_ENDOMETRIUM): 1.073
Viability (HEC1B_ENDOMETRIUM, pert_dose 6.10E-04): 0.9409
AUC (HEC6_ENDOMETRIUM): 1.185
